Results as given in patent US5470877A, “Uses of perillic acid methyl ester” (Wisconsin Alumni Research Foundation, priority 1994, dated 1995).
Read-outs that look alike come from different tables or passages of the source.

Key:
NIH3T3 cells = test: NIH3T3 cell growth inhibition (FIG. 3); format: cell-based, mouse; conditions: NIH3T3 (murine) cells
Procedure: NIH3T3 (mouse embryo) cells were obtained from the American Type Culture Collection and were grown in Dulbecco's modified Eagle's medium supplemented with 10% calf serum. M600B immortalized human mammary epithelial cells (Stampfer, M.R., 1985, J. Tissue Culture Methods 9:107-115) were, obtained from Dr. Martha Stampfer and were grown in supplemented HCDB 170 medium (Hammond, et al. (1984) Proc. Natl. Acad. Sci U.S.A. 81:5435-5439), as described previously (Stampfer, et al. (1985) Proc. Natl. Acad. Sci U.S.A. 82:2394-2398; Eldridge, et al. (1989) Cancer Res. 49:4326-4331).
All cells were maintained in 100-mm dishes at 37° C. in a humidified 5% CO2 atmosphere. Viable cells were distinguished from nonviable cells by counting azure II/methylene blue-stained colonies 10 days after the cells were plated at a density of 100 cells per dish. Trypan blue exclusion was measured by incubating cells for 1 min with one drop of trypan blue per 10 ml of cells. Viable (colorless) and nonviable (blue) cells were then counted on a hemocytometer.
We examined the effect of several of the terpenes on certain types of cell growth. […] Additionally, growth of HT29 (human colon adenocarcinoma) cells was inhibited by 80% by 1 mM perillyl alcohol.

[1] = system: CoQ9 and cholesterol synthesis; test: Mevalonate metabolism: CoQ9 and cholesterol synthesis in NIH3T3 cells; format: cell-based, mouse; conditions: for activity at 1000 µM: Mus musculus, NIH3T3, 3 h, average of four experiments ± SD
Procedure: Analysis of Mevalonate Metabolism. NIH3T3 cells were grown in Dulbecco's modified Eagle's medium supplemented with 10% calf serum. […] The cells were then trypsinized, washed and resuspended in phosphate-buffered saline. The protein concentrations were determined using a bicinchoninic acid protein assay (Shihabi, et al, Ann. Clin. Lab. Sci. 18:235-239, 1988). Samples containing equal amount of protein were spotted on TLC plates with or without acetone extraction (Maziere, et al, J. Biochem. Biophys. Methods 14:267-272, 1987.) The TLC plates were developed with hexane/diethyl ether/acetic acid (70:30:2, v/v) (Maziere, et al, Supra). Dry plates were analyzed for radioactivity using a phosphorimager (Molecular Dynamics).
Labeling Cells with [^14 C(U)] Tyrosine. NIH3T3 cells were treated with 30 μM lovastatin for 18 hours and then incubated in fresh tyrosine deficient minimum essential medium (supplemented with 10% dialyzed fetal bovine serum) containing 400 μM mevalonic acid lactone (Sigma) and 14 μCi/ml [^14 C(U)] tyrosine (500 mCi/mmol) for 3 hours in the absence or presence of 1 mM perillyl alcohol. Cells were harvested and lipids were analyzed as described above.
HPLC Analysis of Unsaponifiable Lipids. Cells were labeled with [2-^14 C] mevalonolactone as described above and then were saponified as described by Popjak et al, J. Lipid Res, 26:831-841, 1985. Unsaponifiable lipids were extracted with petroleum ether, dried and dissolved in chloroform methanol (1:1, v/v). Reverse phase HPLC using a Bio-Rad ODS-5S (25 cm×4 mm) column fitted with a Sigma hypersil ODS guard column was run isocratically with methanol/acetonitrile/water (72.5:22.5:5, v/v) at a flow rate of 0.8 ml/min. The effluent was monitored at 210 nm, the fractions were collected, and radioactivities were determined with a Beckman LS 6000IC Scintillation Counter.

[2] = Effect of dietary perillyl alcohol on serum cholesterol and lipids in rats; format: in vivo, Wistar-Furth rat
From the text: Twenty-one female, six-weeks-old, Wistar-Furth rats were divided into three different diet groups of seven rats each. One group was fed a control diet, one group was fed a 1% perillyl alcohol diet, and one group was fed a 2% perillyl alcohol diet. Rats from each diet group were matched into pair feeding groups.
Rats in the control group were pair fed against rats in the 2% POH diet group. Rats in the 1% POH diet group were allowed to eat as much as they wanted. After one month, rats in the 1% POH diet group were also pair fed against rats in 2% POH group. After two months of feeding, rats in all groups were allowed to eat as much as they wanted. The rats were allowed to eat as much as they wanted because the diurnal rhythm of HMGCoA reductase activity might be related to food intake.
The rats' body weights were measured twice a week. Perillyl alcohol diets were made once a week and replaced daily.
[…] About 1 ml blood was taken from each rat each time and collected in heparin (SIGMA) coated tube. For CoQ analysis, 0.5 ml blood was added to the CoQ6 standard. For cholesterol analysis the blood were spun down at 3,000 rpm for 10 minutes and the plasma were taken. By three months, all rats were killed.
Total cholesterol, HDL cholesterol and triglyceride levels in the rats' plasma were measured using diagnostic kits from SIGMA according to manufacturer's instructions. LDL cholesterol levels were calculated by Friedewald's equation. […]

[3] = Chronic dietary toxicity in rats
21-26 kDa proteins = test: Protein isoprenylation inhibition in M600B human mammary epithelial cells; conditions: 3 mM
Procedure: To test whether a specific monoterpene affects isoprenylation of proteins in cells, cell extracts were incubated with a radioactive isoprene precursor and 0-5 mM of the test monoterpene and then subjected to SDS-PAGE. Because they carried a radioactive label, isoprenylated proteins were visualized by fluorography. As a control, cells were incubated without the monoterpene.
For both isoprenylation and cell growth assays, the monoterpenes were mixed with prewarmed (37° C.) medium containing 10% calf serum, and then the monoterpene-containing medium was added to cells. The relative effects of various monoterpenes on protein isoprenylation were compared by comparison of the relative intensity of bands on fluorograms from [^14 C]-mevalonate-labelled cells treated with each monoterpene.
Some fluorograms were analyzed further by densitometry. Where indicated, gels were sliced, dissolved at 50° C. for 3 hours in 0.5 ml of water+0.5 ml of Solvable (Amersham), and then analyzed by scintillation spectrometry in 10 ml of Atom light (Amersham) mixture.
Samples from each cell line were then analyzed on the same gel.

C=C(C)[C@@H]1CC=C(CO)CC1 [perillyl alcohol]
inhibition of cell growth (NIH3T3 cells): significantly inhibited cell growth in a dose-dependent manner | CoQ9 labeled from [14C(U)] tyrosine ([1]; 1 mM perillyl alcohol): greatly reduced | activity at 1000 µM ([1]; 1 mM perillyl alcohol, read-out: Cholesterol + Lathosterol synthesis (% of Control)): 107 ± 16.5% | activity at 1000 µM ([1]; 1 mM perillyl alcohol, read-out: Cholesterol synthesis (% of Control)): 26.7 ± 4.7% | activity at 1000 µM ([1]; 1 mM perillyl alcohol, read-out: CoQ9 synthesis (% of Control)): 14.1 ± 4.6% | activity at 1000 µM ([1]; 1 mM perillyl alcohol, read-out: Lathosterol synthesis (% of Control)): 427 ± 130% | recovery of labeled CoQ9 ([1]; cold control medium up to 6 hours post-labeling): labeled CoQ9 could not be observed | block of cholesterol synthesis on continued exposure ([1]; continually grown in 1 mM perillyl alcohol): maintained the block of cholesterol synthesis | conversion of labeled cholesterol back to lathosterol ([1]; reincubated in 1 mM perillyl alcohol after control medium): did not convert labeled cholesterol back to labeled lathosterol | neutral lipid metabolism changes in treated cells ([1]; spot X = CoQ9, Y = cholesterol, Z = lathosterol): inhibition of two spots (X and Y) and the increased accumulation of a third spot (Z) | neutral lipid changes after [14C]squalene labeling ([1]; spot Y = cholesterol, spot Z = lathosterol): inhibition of spot Y and the accumulation of spot Z | reversibility of block of cholesterol synthesis ([1]; switched to control medium, 3 hour chase): Lathosterol was observed to be converted to cholesterol | Body Weight ([2]; 1% POH diet): 207 ± 3 g | Heart Weight ([2]; 1% POH diet): 0.57 ± 0.05 g | Liver Weight ([2]; 1% POH diet): 6.1 ± 0.3 g | HDL Cholesterol ([2]; 1% POH diet, Kill): 37.6 ± 3.8 mg/dL | Total Cholesterol ([2]; 1% POH diet, Kill): 47.7 ± 4.3 mg/dL | Triglyceride ([2]; 1% POH diet, Kill): 29.8 ± 8.9 mg/dL | LDL Cholesterol ([2]; 1% POH diet, Kill, Friedewald's equation): 4.1 ± 2.4 mg/dL | HDL Cholesterol ([2]; 1% POH diet, WK3): 31.7 ± 2.3 mg/dL | Total Cholesterol ([2]; 1% POH diet, WK3): 45.9 ± 4.2 mg/dL | Triglyceride ([2]; 1% POH diet, WK3): 20.8 ± 5.2 mg/dL | LDL Cholesterol ([2]; 1% POH diet, WK3, Friedewald's equation): 10.1 ± 3.1 mg/dL | HDL Cholesterol ([2]; 1% POH diet, WK6): 33.1 ± 2.2 mg/dL | Total Cholesterol ([2]; 1% POH diet, WK6): 41.0 ± 3.0 mg/dL | Triglyceride ([2]; 1% POH diet, WK6): 29.5 ± 5.7 mg/dL | LDL Cholesterol ([2]; 1% POH diet, WK6, Friedewald's equation): 2.0 ± 1.4 mg/dL | HDL Cholesterol ([2]; 1% POH diet, WK9): 31.5 ± 2.6 mg/dL | Total Cholesterol ([2]; 1% POH diet, WK9): 43.2 ± 4.9 mg/dL | Triglyceride ([2]; 1% POH diet, WK9): 28.7 ± 5.7 mg/dL | LDL Cholesterol ([2]; 1% POH diet, WK9, Friedewald's equation): 6.0 ± 4.0 mg/dL | Body Weight ([2]; 2% POH diet): 198 ± 6 g | Heart Weight ([2]; 2% POH diet): 0.57 ± 0.05 g | Liver Weight ([2]; 2% POH diet): 6.2 ± 0.5 g | HDL Cholesterol ([2]; 2% POH diet, Kill): 39.8 ± 4.0 mg/dL | Total Cholesterol ([2]; 2% POH diet, Kill): 52.8 ± 6.8 mg/dL | Triglyceride ([2]; 2% POH diet, Kill): 33.8 ± 14.9 mg/dL | LDL Cholesterol ([2]; 2% POH diet, Kill, Friedewald's equation): 6.2 ± 1.8 mg/dL | HDL Cholesterol ([2]; 2% POH diet, WK3): 31.4 ± 1.6 mg/dL | Total Cholesterol ([2]; 2% POH diet, WK3): 44.2 ± 3.7 mg/dL | Triglyceride ([2]; 2% POH diet, WK3): 17.2 ± 5.3 mg/dL | LDL Cholesterol ([2]; 2% POH diet, WK3, Friedewald's equation): 9.4 ± 3.0 mg/dL | HDL Cholesterol ([2]; 2% POH diet, WK6): 33.5 ± 3.6 mg/dL | Total Cholesterol ([2]; 2% POH diet, WK6): 41.2 ± 5.0 mg/dL | Triglyceride ([2]; 2% POH diet, WK6): 21.1 ± 5.7 mg/dL | LDL Cholesterol ([2]; 2% POH diet, WK6, Friedewald's equation): 3.4 ± 2.2 mg/dL | HDL Cholesterol ([2]; 2% POH diet, WK9): 30.7 ± 2.9 mg/dL | Total Cholesterol ([2]; 2% POH diet, WK9): 40.7 ± 3.3 mg/dL | Triglyceride ([2]; 2% POH diet, WK9): 18.4 ± 2.9 mg/dL | LDL Cholesterol ([2]; 2% POH diet, WK9, Friedewald's equation): 6.4 ± 1.2 mg/dL | LDL level versus HDL level ([2]; after 6 weeks of treatment): LDL level is reduced much more than the HDL level | Triglyceride levels ([2]; after 6 weeks of treatment): dramatically reduced | total cholesterol level ([2]; after 6 weeks of treatment): reduced | weight change ([3]; 0.5% POH diet, chronic): very small weight loss followed by weight gain | weight change ([3]; 1.0% POH diet, chronic): very small weight loss followed by weight gain | tolerability ([3]; 2.0% POH diet, chronic): tolerated with weight loss followed by weight gain | tolerability ([3]; 2.5% POH diet, chronic): tolerated with weight loss observed | death ([3]; 3.0% POH diet, chronic): 2/5 | maximum dose tolerated (% diet) ([3]; dietary, data not shown): 2.5% | Toxicity ([3]; perillyl alcohol-fed rats): limited to weight loss | body weight versus controls ([3]; perillyl alcohol-fed, FIG. 8): did not achieve weights similar to controls | isoprenylation of 21-26 kDa proteins (21-26 kDa proteins): inhibited significantly
